Test results published in ChEMBL document CHEMBL1122964, “Conformational analysis and active site modelling of angiotensin-converting enzyme inhibitors” (J Med Chem, 1985).
Where a SMILES comes first, the peptide text is derived from it. The star is where a group is joined. Bz = O=C(c1ccccc1)*

Each compound was assayed against T1, Angiotensin-converting enzyme (Homo sapiens, UniProt P12821) (assay: Compound was evaluated for the inhibition of Angiotensin I converting enzyme). Settings: not given.
T1 sequence (P12821 whole entry): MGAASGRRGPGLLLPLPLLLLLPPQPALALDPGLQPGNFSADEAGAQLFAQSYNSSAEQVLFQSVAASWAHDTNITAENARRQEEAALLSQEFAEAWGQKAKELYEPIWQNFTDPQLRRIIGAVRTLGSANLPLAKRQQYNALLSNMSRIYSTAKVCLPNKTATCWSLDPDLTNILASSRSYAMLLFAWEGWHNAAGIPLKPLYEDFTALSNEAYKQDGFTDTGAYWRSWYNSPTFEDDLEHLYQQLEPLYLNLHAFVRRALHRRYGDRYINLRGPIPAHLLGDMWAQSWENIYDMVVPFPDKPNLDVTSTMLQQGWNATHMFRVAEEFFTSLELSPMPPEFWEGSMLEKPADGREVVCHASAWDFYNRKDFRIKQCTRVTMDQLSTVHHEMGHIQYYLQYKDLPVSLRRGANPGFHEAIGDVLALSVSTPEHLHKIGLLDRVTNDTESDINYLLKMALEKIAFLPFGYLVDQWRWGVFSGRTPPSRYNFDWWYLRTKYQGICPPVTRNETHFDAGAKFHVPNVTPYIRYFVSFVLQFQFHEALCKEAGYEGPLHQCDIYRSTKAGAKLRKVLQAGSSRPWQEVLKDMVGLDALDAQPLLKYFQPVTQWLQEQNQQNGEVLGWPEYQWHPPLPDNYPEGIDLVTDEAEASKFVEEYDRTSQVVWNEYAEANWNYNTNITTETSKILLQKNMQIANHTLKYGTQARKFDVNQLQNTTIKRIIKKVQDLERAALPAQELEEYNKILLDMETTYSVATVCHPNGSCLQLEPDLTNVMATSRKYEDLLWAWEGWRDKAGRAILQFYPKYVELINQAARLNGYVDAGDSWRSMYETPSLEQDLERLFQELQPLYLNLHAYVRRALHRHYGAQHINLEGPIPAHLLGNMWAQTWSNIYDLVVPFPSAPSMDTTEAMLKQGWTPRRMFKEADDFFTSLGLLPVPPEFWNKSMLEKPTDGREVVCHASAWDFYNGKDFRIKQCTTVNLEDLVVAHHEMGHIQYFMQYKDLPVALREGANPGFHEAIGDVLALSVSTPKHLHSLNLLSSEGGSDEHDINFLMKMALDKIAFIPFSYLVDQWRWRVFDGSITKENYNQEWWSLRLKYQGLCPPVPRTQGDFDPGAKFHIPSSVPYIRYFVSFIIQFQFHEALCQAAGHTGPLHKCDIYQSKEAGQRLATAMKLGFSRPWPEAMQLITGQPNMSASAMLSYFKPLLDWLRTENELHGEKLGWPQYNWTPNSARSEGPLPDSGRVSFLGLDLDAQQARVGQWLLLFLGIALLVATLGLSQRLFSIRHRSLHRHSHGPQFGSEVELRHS

Compound | Ki [µM]
C[C@H](NP(=O)(O)CCc1ccccc1)C(=O)N1CCC[C@H]1C(=O)O | 0.0005
C[C@@H](NP(=O)(O)O)C(=O)N1CCC[C@H]1C(=O)O | 0.0014

What follows are compounds tested against T1, Angiotensin-converting enzyme (assay: Inhibition of Angiotensin I converting enzyme). Settings: read-out: I50.

Compound | IC50 [µM]
O=C(O)CN1C(=O)[C@@H](NC(CCc2ccccc2)C(=O)O)CSc2ccccc21 (stereo partly specified) | 0.003
O=C(O)[C@@H]1CCCN1C(=O)CCS | 1800
O=C(O)[C@H]1CCCN1C(=O)CCS | 0.2
C[C@H](NC(=O)[C@H](Cc1ccccc1)NC(=O)c1ccccc1)C(=O)N1CCC[C@H]1C(=O)O (Bz-Phe-Ala-Pro-OH) | 0.0032
